Test system: Spodoptera litura
Test: Test for embryos of Spodoptera litura (sweet potato leaf dip)
Type: in vivo
Conditions: effective ingredient concentration 20 ppm; 3 instar, sweet potato leaves immersed; dead counted after 7 days, 25° C.
Experimental: Preparation of Sample Drug Solution
1 Part by weight of the active compound was mixed with the above-mentioned amount of a solvent containing the above-mentioned amount of emulsifier in order to prepare the formulation of an appropriate active compound, and the mixture was diluted with water to a predetermined concentration.
The leaves of sweet potato were immersed in a sample drug solution which was diluted with water to a predetermined concentration and charged in a petri dish with a diameter of 9 cm after drying the drug solution. 10 of embryos with 3 instar of Spodoptera litura were dropped thereto, the petri dish was placed in a constant temperature chamber at 25° C., the leaves of sweet potato were additionally added after 2 days and 4 days and the number of dead embryos was examined after 7 days to calculate an insecticidal rate.
In the present test, the result of 2 petri dishes per one partition was averaged.

Row | SMILES | insecticidal rate [%]
1 | Cc1cc(C(F)(C(F)(F)F)C(F)(F)F)cc(C)c1NC(=O)c1csc(NC(=O)c2ccccc2Cl)n1 [compound 34, 2-(2-chlorobenzoyl)amino-N-(2,6-dimethyl-4 heptafluoroisopropylphenyl)-1,3-thiazole-4-carboxamide] | 100
2 | Cc1cc(C(F)(C(F)(F)F)C(F)(F)F)cc(C)c1NC(=O)c1csc(NC(=O)c2cccc(Cl)c2)n1 [compound 67, 2-(3-chlorobenzoyl)amino-N-(2,6-dimethyl-4-heptafluoro-isopropylphenyl)-1,3-thiazole-4-carboxamide] | 100
